Source: patent US8829196B2, “TRPA1 antagonists” (Merck Sharp & Dohme Corp., priority 2009, dated 2014)

Molecular target: T1, human TRPA1 (Homo sapiens, UniProt O75762, K186N/R3C/R58T)
T1 construct: host or cells: HEK293 FlpIn
Test: High Throughput Calcium Imaging Assay (FLIPR, cinnamaldehyde-activated Ca2+ influx)
Type: cell-based
Settings: HEK293 FlpIn cells stably expressing human TRPA1; EC60 cinnamaldehyde; Fluo-4AM; read-out: TRPA1 hFLIPR IC50
Description: The assay was dependent on detecting the change in intracellular Ca2+ concentration following activation of the channel in cells stably expressing the TRPA1 channel. Activation of the TRPA1 channel was followed by Ca2+ influx. Ca2+ increase was quantified through the use of a fluorescent Ca2+ indicator that was loaded into the cells. Compounds which inhibited Ca2+ increase were considered “hits” warranting additional examination.
The HEK293 FlpIn cell line (Invitrogen) was stably transfected as per the manufacturers guidelines with a construct encoding a human TRPA1 protein with the amino acid sequence depicted in SEQ ID NO: 1. The resulting cell line was maintained in the growth medium recommended by the manufacturer and supplemented with 100 ug/mL Hygromycin B to promote the selection of cells stably expressing the TRPA1 channel. After growing to confluency, cells were plated at a density of 24,000 cells/well in 384 well Black/Clear Microtest plates (Falcon) in the recommended growth medium supplemented with hygromycin, and allowed to grow for 20-24 hours resulting in a ˜90% confluent monolayer of cells. Cells were then loaded with assay buffer containing the Ca2+ dye Fluo-4AM (Invitrogen) to a final concentration of 4 uM, and incubated for 60 minutes at room temperature in the dark. The assay buffer consisted of 138 mM NaCl, 5.33 mM KCl, 1.26 mM CaCl2, 0.49 mM MgCl2, 0.41 mM MgSO4 5.56 mM D-glucose, 0.44 mM KH2PO4, 0.34 mM Na2HPO4, 20 mM HEPES, 2.5 mM Probenecid, and 4% TR-40; pH 7.8. Following 1 hour dye loading, cells were assayed using the FLIPR TETRA (Molecular Devices) which permits excitation of the Fluo-4AM dye, and subsequent recording of emission spectra according to the manufacturer's guidelines. A total of 5 baseline readings were acquired prior to each reagent addition, after which, readings were acquired at a rate of 1 every 3 seconds for 195 seconds, and then 1 every 10 seconds for an additional 420 seconds. During the assay, reagents were added and mixed after each addition by the FLIPR TETRA pippetor. EC60 concentration of Cinnamaldehyde was determined before the screening assay, and used as the activating concentration henceforth. For the screening assay, the baseline reading was taken, followed by addition of 10 uL of a compound stock at six-times the final concentration, followed by 615 seconds of read time as previously described. Following baseline readings, 10 μl, of six-times final concentration Cinnamaldehyde was added to each well, achieving a final concentration of 10 uM compound, and on average, 12 uM Cinnamaldehyde (depending on the EC60 derived during that experiment). Following addition of Cinnamaldehyde, readings were taken for 615 seconds as previously described. Negative controls consisted of HEK293 FlpIn TRPA1 cells exposed to compound vehicle and then Cinnamaldehyde. […] “Hits” were identified as compounds which inhibited the fluorescence response in the presence of Cinnamaldehyde as compared to the negative and positive controls. IC50 values were determined for compounds defined as “hits” which reached fully inhibition. This cell-based fluorescence assay was used to determine Ca2+ influx through the channel in the presence of compound at the following concentrations: 10 uM, 3.33 uM, 1.11 uM, 0.37 uM, 0.12 uM, 0.041 uM, 0.014 uM, 0.0046 uM, 0.0015 uM, and 0.00051 uM.

T1 sequence (O75762 whole entry R3C/R58T/K186N): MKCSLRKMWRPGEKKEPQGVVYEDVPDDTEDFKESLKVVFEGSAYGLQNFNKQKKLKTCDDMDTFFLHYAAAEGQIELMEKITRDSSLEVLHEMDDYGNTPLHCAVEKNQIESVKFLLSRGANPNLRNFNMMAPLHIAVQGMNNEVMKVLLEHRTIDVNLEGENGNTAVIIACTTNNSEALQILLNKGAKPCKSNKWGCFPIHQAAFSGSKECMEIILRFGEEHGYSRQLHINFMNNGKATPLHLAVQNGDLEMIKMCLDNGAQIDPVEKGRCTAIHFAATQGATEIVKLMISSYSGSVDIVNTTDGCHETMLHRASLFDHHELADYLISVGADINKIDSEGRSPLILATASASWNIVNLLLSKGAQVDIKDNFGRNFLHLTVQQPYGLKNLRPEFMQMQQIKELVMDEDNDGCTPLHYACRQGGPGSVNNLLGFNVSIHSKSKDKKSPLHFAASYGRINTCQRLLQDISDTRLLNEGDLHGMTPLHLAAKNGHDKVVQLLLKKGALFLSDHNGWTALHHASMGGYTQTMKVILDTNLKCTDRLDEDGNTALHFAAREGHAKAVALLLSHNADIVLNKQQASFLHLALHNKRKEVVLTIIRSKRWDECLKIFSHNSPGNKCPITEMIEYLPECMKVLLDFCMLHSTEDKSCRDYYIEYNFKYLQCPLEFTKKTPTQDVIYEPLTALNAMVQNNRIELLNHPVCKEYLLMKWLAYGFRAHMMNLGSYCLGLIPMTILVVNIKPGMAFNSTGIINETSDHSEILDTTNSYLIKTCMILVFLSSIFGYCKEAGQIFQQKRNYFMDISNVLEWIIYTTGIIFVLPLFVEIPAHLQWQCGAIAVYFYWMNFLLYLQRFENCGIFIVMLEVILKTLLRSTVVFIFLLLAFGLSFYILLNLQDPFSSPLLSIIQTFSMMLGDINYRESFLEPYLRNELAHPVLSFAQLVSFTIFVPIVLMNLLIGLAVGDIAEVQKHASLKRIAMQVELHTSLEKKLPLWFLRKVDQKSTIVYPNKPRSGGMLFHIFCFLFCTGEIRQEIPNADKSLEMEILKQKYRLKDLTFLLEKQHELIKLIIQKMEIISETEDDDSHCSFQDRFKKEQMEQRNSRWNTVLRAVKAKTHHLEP

SMILES	IC50 [nM]
COC[C@@H]1CCC(Nc2ccc(F)cc2)C2(O)CCCO[C@H]12 (stereo in doubt) [(4aR,5S)-5-[(4-fluorophenyl)amino]-8-(methoxymethyl)hexahydro-2H-chromen-4a(5H)-ol]	35
O[C@@]12CCCO[C@H]1CCC[C@@H]2Nc1ccc(F)cc1 (stereo in doubt) [(4aR,5S,8aS)-5-[(4-fluorophenyl)amino]hexahydro-2H-chromen-4a(5H)-ol]	850
O[C@]12CCCC[C@@H]1CCC[C@H]2Nc1ccccc1 [(4R,4aR,8aR)-4-(phenylamino)octahydronaphthalen-4a(2H)-ol]	54
O[C@]12CCCC[C@@H]1CCC[C@H]2Nc1ccc(F)cc1 [(4aR,8aR)-4-[(4-fluorophenyl)amino]octahydronaphthalen-4a(2H)-ol]	19
O[C@]12CCCO[C@H]1CCC[C@H]2Nc1ccc(F)cc1 [(4aS,5R,8aS)-5-[(4-fluorophenyl)amino]hexahydro-2H-chromen-4a(5H)-ol]	520
